From patent US8980848B2, “Flavonoid dimers and their use” (The Hong Kong Polytechnic University, priority 2010, dated 2015) come the findings set out here.

Series [1] deals with Pgp (LCC6MDR cells) (Homo sapiens, UniProt P08183). The experiment in a line: Cell proliferation assay: Pgp-modulating activity, reversal of anticancer drug resistance in LCC6MDR cells. As to conditions: for RF (Relative Fold), cpd at 0.5 μM: RF = (IC50 without modulator)/(IC50 with 0.5 μM modulator); for RF (Relative Fold), cpd at 0.5 μM / RF (Relative Fold), cpd at 1 μM: paclitaxel; for RF (Relative Fold), cpd at 0.5 μM / EC50 / RF (Relative Fold), cpd at 1 μM: LCC6MDR; for EC50: EC50 of compounds for reversing anticancer drug resistance (nM), Paclitaxel; for Therapeutic index: IC50 of compounds for L929/EC50 of compounds for lowering paclitaxel drug resistance; for RF (Relative Fold), cpd at 1 μM: RF = (IC50 without modulator)/(IC50 with 1.0 μM modulator).
Sequence of Pgp (LCC6MDR cells) (P08183 whole entry): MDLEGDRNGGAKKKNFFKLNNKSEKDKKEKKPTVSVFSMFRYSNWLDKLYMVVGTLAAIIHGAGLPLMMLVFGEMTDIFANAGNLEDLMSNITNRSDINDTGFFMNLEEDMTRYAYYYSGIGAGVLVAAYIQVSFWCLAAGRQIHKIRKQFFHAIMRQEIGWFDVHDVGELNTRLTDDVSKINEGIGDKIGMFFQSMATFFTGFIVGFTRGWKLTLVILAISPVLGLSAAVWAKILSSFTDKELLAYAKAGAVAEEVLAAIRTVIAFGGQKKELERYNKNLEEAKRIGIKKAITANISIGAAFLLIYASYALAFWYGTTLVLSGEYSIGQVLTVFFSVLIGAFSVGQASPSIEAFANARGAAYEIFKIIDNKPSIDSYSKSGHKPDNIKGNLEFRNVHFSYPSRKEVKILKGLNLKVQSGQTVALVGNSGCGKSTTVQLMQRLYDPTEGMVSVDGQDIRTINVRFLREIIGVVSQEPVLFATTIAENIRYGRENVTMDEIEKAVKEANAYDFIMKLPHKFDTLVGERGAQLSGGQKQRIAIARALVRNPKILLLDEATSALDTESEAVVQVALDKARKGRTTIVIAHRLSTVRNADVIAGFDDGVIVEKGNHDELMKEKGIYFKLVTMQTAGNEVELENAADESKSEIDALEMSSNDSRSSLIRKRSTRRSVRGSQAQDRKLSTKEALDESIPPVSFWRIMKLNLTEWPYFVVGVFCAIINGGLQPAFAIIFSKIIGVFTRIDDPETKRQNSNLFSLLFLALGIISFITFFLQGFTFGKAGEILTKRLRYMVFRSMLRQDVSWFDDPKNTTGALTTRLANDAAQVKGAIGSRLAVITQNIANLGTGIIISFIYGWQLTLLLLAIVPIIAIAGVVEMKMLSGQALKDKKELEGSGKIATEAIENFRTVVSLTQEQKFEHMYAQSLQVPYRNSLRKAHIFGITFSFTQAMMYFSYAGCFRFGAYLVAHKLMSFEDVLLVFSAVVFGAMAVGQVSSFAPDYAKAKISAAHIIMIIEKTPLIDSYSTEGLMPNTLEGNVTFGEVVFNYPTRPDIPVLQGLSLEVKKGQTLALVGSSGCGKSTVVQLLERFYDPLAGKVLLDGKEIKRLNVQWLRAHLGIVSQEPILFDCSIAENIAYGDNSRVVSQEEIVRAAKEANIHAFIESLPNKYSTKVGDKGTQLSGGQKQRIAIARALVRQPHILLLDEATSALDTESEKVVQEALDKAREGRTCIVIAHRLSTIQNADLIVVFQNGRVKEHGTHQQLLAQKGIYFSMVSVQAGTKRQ
Experimental: Cell Proliferation Assay. 6,000 cells of LCC6 or LCC6MDR and anticancer drugs (paclitaxel, vinblastine, vincristine, doxorubicin and mitoxantrone) were mixed with or without modulators to a final volume of 200 μL in each well of 96-well plates. […] The plates were then incubated for 5 days at 37° C. […] IC50 values were calculated from the dose-response curves of MTS assays (Prism 4.0).

A short description of series [2]: Tumor cell line cytotoxicity of flavonoid dimers, LCC6. The conditions noted are these: human, LCC6 cells, IC50 of compound alone. The class given is cell-based, human. Here is the method: (§1) (b) Tumor Cell Line Cytotoxicity. The tumor cytotoxicity assays of flavonoid dimers were performed against LCC6, LCC6MDR and L929 cell lines. […] In brief, LCC6, LCC6MDR and L929 cells were seeded into 96-well flat bottom microtiter plate at 1×10^4 cells per well in a final volume of 100 μL media, respectively. A graded dose of flavonoid dimers was added into wells. The plate was incubated at 37° C. for 72 hrs at the atmosphere 5% CO2 in the air. The % of survivors was determined.

Series [3] is described as follows: Tumor cell line cytotoxicity of flavonoid dimers, LCC6MDR. Format: cell-based, human. The conditions noted are these: human, LCC6MDR cells, IC50 of compound alone. The method, then: as §1
In series [4] the test system is Ld39 promastigotes (SSG-resistant). The experiment in a line: In vitro anti-promastigote activity, Ld39. Format: cell-based, Leishmania donovani. The conditions noted are these: Leishmania donovani, 72 h, read-out: Anti-promastigotes activity (IC50, μM) Ld39. Here is the method:
(§2) Cell Lines and Cell Culture. Promastigotes of Leishmania donovani (wild type LdAG83, pentamidine-resistant LdAG83-PentR50, and SSG-resistant Ld39) and Leishmania major [MHOM/IL/67/JERICHO II (Lm50122), from ATCC] were used in this study.
(§3) In Vitro Anti-Promastigote Activity. The viability of promastigotes was determined by the Cell Titer 96° Aqueous Assay (Promega) that employs a tetrazolium compound (MTS, 2-(4,5-Dimethylthiazol-2-yl-)-5-[3-(carboxymethoxy)phenyl]-2-(4-sulfophenyl)-2H-tetrazolium) and electron coupling reagent, phenazine methosulfate (PMS).^7 Promastigotes were seeded into 96-well flat bottom microtiter plate at 1×10^5 cells per well in a final volume of 100 μL medium and incubated with a series concentration of synthetic flavonoid dimers or known antileishmanials. The parasites were incubated at 27° C. for 72 hrs. Fresh solution of 2 mg/mL MTS and 0.92 mg/mL PMS were prepared in a ratio of 20:1 (MTS:PMS). After 72 hrs incubation, 10 μL of MTS:PMS mixture was added into each well of microtiter plate. The plate was then incubated at 27° C. for 4 hrs for color development. After 4 hrs incubation, the OD values were determined at 490 nm using automatic microtiter plate reader (Bio-Rad).

Series [5] deals with LdAG83 promastigotes (wild type). The series can be described thus: In vitro anti-promastigote activity, LdAG83. Format: cell-based, Leishmania donovani. The conditions noted are these: Leishmania donovani, 72 h, read-out: Anti-promastigotes activity (IC50, μM) LdAG83. Here is the method: as §2, §3
Series [6] deals with Raw264.7 cells. The experiment in a line: Cytotoxicity, mouse macrophage Raw264.7. As to conditions: Mus musculus, RAW264.7, 72 h. The class given is cell-based. Here is the method:
(a) Mouse Macrophage Raw 264.7 and Primary Mouse PEM Cells. The cytotoxicity assay of reference antileishmanial compounds and the compounds of this invention was performed against mouse macrophage cell line, Raw 264.7 and primary mouse PEM cells in order to calculate the therapeutic index (IC50 value for cytotoxicity of the compounds divided by IC50 value for antileishmanial activity of the compounds). The cells were grown in supplemented DMEM media in an atmosphere of 95% air with 5% CO2 at 37° C. In brief, Raw264.7 cells and PEM cells were seeded into 96-well flat bottom microtiter plate at 1×10^4cells and 2×10^4 cells per well in a final volume of 100 μL media, respectively. A graded dose of flavonoid dimers or antileishmanials was added into wells. The plate was incubated at 37° C. for 72 hrs at the atmosphere 5% CO2 in the air. The % of survivors was determined.

Series [7] is described as follows: Cytotoxicity of flavonoid dimers, L929 mouse fibroblast. The class given is cell-based. The conditions noted are these: mouse, L929 fibroblast cells, IC50 of compound alone, 72 hrs, mouse fibroblast. The method, then:
as §1

By IC50 is commonly meant the concentration that gives 50% inhibition. As for `CS(=O)(=O)N(CCOCCOc1ccc(-c2cc(=O)c3ccccc3o2)cc1)CCOCCOc1ccc(-c2cc(=O)c3ccccc3o2)cc1` [Compound 24, 1,13-Bis[4′-(4H-chromen-4-on-2-yl)phenyl]-N-(methanesulfonyl)-1,4,10,13-tetraoxa-7-azamidecane], the “RF (Relative Fold), cpd at 0.5 μM” value in series [1] is given as “(12.8)”. Further, the results for the IC50 at 72 h in series [2], in series [3] and in series [7] were 27.5 ± 8.4 µM, 42.6 ± 5.4 µM and 13.4 ± 3.9 µM, respectively. Besides, the figures for the IC50 in series [4], in series [5] and in series [6] were 1.5 µM, 0.5 µM and 96 ± 4 µM, respectively.
What is called melting point is the temperature, or range, at which the solid turns liquid. In turn, `CN(C)c1cccc2c(S(=O)(=O)N(CCOCCOc3ccc(-c4cc(=O)c5ccccc5o4)cc3)CCOCCOc3ccc(-c4cc(=O)c5ccccc5o4)cc3)cccc12` [Compound 25b, 1,13-Bis[4′-(4H-chromen-4-on-2-yl)phenyl]-7-(dansyl)-1,4,10,13-tetraoxa-7-azamidecane] yielded a melting point of 72 to 74 °C. Also, in series [1], the “RF (Relative Fold), cpd at 0.5 μM” value is reported as “(1.4)”. Also, in series [2], the IC50 at 72 h was above 100 µM. In series [3], this molecule showed an IC50 at 72 h above 100 µM.
As usually defined, the EC50 is the midpoint of the concentration-response curve. For `O=c1cc(-c2ccc(OCCOCCN(CCCc3ccccc3)CCOCCOc3ccc(-c4cc(=O)c5ccccc5o4)cc3)cc2)oc2ccccc12` [Compound 26, 1,13-Bis[4′-(4H-chromen-4-on-2-yl)phenyl]-N-(3-phenylpropyl)-1,4,10,13-tetraoxa-7-azamidecane], in series [1], the EC50 worked out at 250 nM. The Therapeutic index in series [1] is 38.0. The “RF (Relative Fold), cpd at 0.5 μM” value in series [1] is “(12.5)”. In addition, the IC50 at 72 h in series [2] was above 100 µM; in series [3], above 100 µM; in series [7] it was 9.5 µM. For the same molecule, the values for the IC50 in series [4], in series [5] and in series [6] were 18.4 µM, 8.9 µM and 85 µM, respectively.
Turning to `O=c1cc(-c2ccc(OCCOCCN(CCOCCOc3ccc(-c4cc(=O)c5ccccc5o4)cc3)Cc3nc4ccccc4[nH]3)cc2)oc2ccccc12` [Compound 60, 1,13-Bis[4′-(4H-chromen-4-on-2-yl)phenyl]-7-(2-benzimidazolylmethyl)-1,4,10,13-tetraoxa-7-azamidecane], in series [1], the “RF (Relative Fold), cpd at 0.5 μM” value was “(21.9)”. The “RF (Relative Fold), cpd at 1 μM” value in series [1] was “(117.8)”. For the same molecule, the IC50 at 72 h in series [2] is above 100 µM; in series [3], above 100 µM; in series [7] it was above 70 µM.
In the case of `O=c1cc(-c2ccc(OCCOCCN(CCOCCOc3ccc(-c4cc(=O)c5ccccc5o4)cc3)CC3CCCCC3)cc2)oc2ccccc12` [Compound 62, 1,13-Bis[4′-(4H-chromen-4-on-2-yl)phenyl]-7-(cyclohexanylmethyl)-1,4,10,13-tetraoxa-7-azamidecane], in series [1], the EC50 stood at 132 ± 7 nM; the Therapeutic index worked out at 143.2; the “RF (Relative Fold), cpd at 0.5 μM” value is “(56.7)”; the “RF (Relative Fold), cpd at 1 μM” value is on record as “(117.8)”. For the same molecule, the IC50 at 72 h in series [2] is 10 ± 4.7 µM. Half-maximal inhibition in series [3] (IC50 at 72 h) was put at 7.9 ± 2.7 µM. The molecule also came in with an IC50 at 72 h in series [7] of 18.9 ± 2.3 µM.
Consider `O=c1cc(-c2ccc(OCCOCCN(CCOCCOc3ccc(-c4cc(=O)c5ccccc5o4)cc3)Cc3cccnc3)cc2)oc2ccccc12` [Compound 64a, 1,13-Bis[4′-(4H-chromen-4-on-2-yl)phenyl]-7-(3-pyridylmethyl)-1,4,10,13-tetraoxa-7-azamidecane], for which, in series [1], the “RF (Relative Fold), cpd at 0.5 μM” value is given as “(8.5)”. Besides, the “RF (Relative Fold), cpd at 1 μM” value in series [1] was “(46.4)”. Besides, the IC50 at 72 h stood at 5.7 ± 1.4 µM in series [2], 4.7 ± 0.2 µM in series [3] and 2.3 ± 0.2 µM in series [7].
For `O=c1cc(-c2ccc(OCCOCCN(CCOCCOc3ccc(-c4cc(=O)c5ccccc5o4)cc3)Cc3ccnc(Br)c3)cc2)oc2ccccc12` [Compound 64b, 1,13-Bis[4′-(4H-chromen-4-on-2-yl)phenyl]-7-(4-(2-bromopyridyl)methyl)-1,4,10,13-tetraoxa-7-azamidecane], the “RF (Relative Fold), cpd at 0.5 μM” value in series [1] is “(8.4)”. The “RF (Relative Fold), cpd at 1 μM” value in series [1] is on record as “(76.6)”. The IC50 at 72 h in series [2], in series [3] and in series [7] was above 100 µM each time.
As for `N#Cc1cc(CN(CCOCCOc2ccc(-c3cc(=O)c4ccccc4o3)cc2)CCOCCOc2ccc(-c3cc(=O)c4ccccc4o3)cc2)ccn1` [Compound 64c, 1,13-Bis[4′-(4H-chromen-4-on-2-yl)phenyl]-7-(4-(2-cyanopyridyl)methyl)-1,4,10,13-tetraoxa-7-azamidecane], the “RF (Relative Fold), cpd at 0.5 μM” value in series [1] is reported as “(19.4)”. Besides, the “RF (Relative Fold), cpd at 1 μM” value in series [1] is recorded as “(66.6)”. The IC50 at 72 h was above 100 µM in series [2], above 100 µM in series [3] and above 50 µM in series [7].
As to `O=c1cc(-c2ccc(OCCOCCN(CCOCCOc3ccc(-c4cc(=O)c5ccccc5o4)cc3)Cc3ccncc3Br)cc2)oc2ccccc12` [Compound 64d, 1,13-Bis[4′-(4H-chromen-4-on-2-yl)phenyl]-7-(4-(3-bromopyridyl)methyl)-1,4,10,13-tetraoxa-7-azamidecane], the “RF (Relative Fold), cpd at 0.5 μM” value in series [1] is on record as “(10.6)”. Also, the “RF (Relative Fold), cpd at 1 μM” value in series [1] is recorded as “(61.2)”. The IC50 at 72 h is above 100 µM in series [2], above 100 µM in series [3] and above 50 µM in series [7].
Regarding `O=c1cc(-c2ccc(OCCOCCN(CCOCCOc3ccc(-c4cc(=O)c5ccccc5o4)cc3)Cc3ccncn3)cc2)oc2ccccc12` [Compound 64e, 1,13-Bis[4′-(4H-chromen-4-on-2-yl)phenyl]-7-(4-pyrimidinylmethyl)-1,4,10,13-tetraoxa-7-azamidecane], the “RF (Relative Fold), cpd at 0.5 μM” value in series [1] was “(8.3)”. In series [1], the “RF (Relative Fold), cpd at 1 μM” value is “(61.2)”. Moreover, the IC50 at 72 h in series [2], in series [3] and in series [7] was above 50 µM in each case.
Take `O=c1cc(-c2ccc(OCCOCCN(CCOCCOc3ccc(-c4cc(=O)c5ccccc5o4)cc3)Cc3ccnc4ccccc34)cc2)oc2ccccc12` [Compound 64f, 1,13-Bis[4′-(4H-chromen-4-on-2-yl)phenyl]-7-(4-quinolinylmethyl)-1,4,10,13-tetraoxa-7-azamidecane]: the “RF (Relative Fold), cpd at 0.5 μM” value in series [1] is reported as “(15.9)”. For the same molecule, the “RF (Relative Fold), cpd at 1 μM” value in series [1] is “(69.6)”. Besides, the IC50 at 72 h in series [2], in series [3] and in series [7] was above 100 µM in each case.
In the case of `O=c1cc(-c2ccc(OCCOCCN(CCOCCOc3ccc(-c4cc(=O)c5ccccc5o4)cc3)Cc3ccc4ccccc4n3)cc2)oc2ccccc12` [Compound 64g, 1,13-Bis[4′-(4H-chromen-4-on-2-yl)phenyl]-7-(2-quinolinylmethyl)-1,4,10,13-tetraoxa-7-azamidecane], the “RF (Relative Fold), cpd at 0.5 μM” value in series [1] was “(66.6)”. For the same molecule, the “RF (Relative Fold), cpd at 1 μM” value in series [1] is given as “(102.1)”. Moreover, the IC50 at 72 h in series [2] is above 100 µM; in series [3] it was above 100 µM; in series [7], 8.5 ± 2.3 µM.
As for `O=c1cc(-c2ccc(OCCOCCN(CCOCCOc3ccc(-c4cc(=O)c5ccccc5o4)cc3)c3ccccc3)cc2)oc2ccccc12` [Compound 64h, 1,13-Bis[4′-(4H-chromen-4-on-2-yl)phenyl]-7-(phenyl)-1,4,10,13-tetraoxa-7-azamidecane], in series [1], the “RF (Relative Fold), cpd at 0.5 μM” value is on record as “(11.6)”. Further, the “RF (Relative Fold), cpd at 1 μM” value in series [1] is reported as “(72.9)”. Also, the concentration for half-maximal inhibition (IC50) at 72 h in series [2], in series [3] and in series [7] was above 100 µM in each case.
